Molecules are shown by their SMILES.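 Results reflect a 48-hour exposure of cells in 96-well plates to compound at five concentrations. The concentration for 50% growth inhibition is given as GI50.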 Calls of active or inactive are those of the source. Rule as the data show it: active = GI50 up to about 1.1 µM and inactive = higher. A value given as a limit tells only on which side of the number the result lay.

14 compounds from ChEMBL document CHEMBL1201862, “PubChem BioAssay data set” (2004) can be followed below.

Experiment in all cases: DTP human tumour cell line panel, 48 h
Experiment [1] has as its system 786-0.
Experiment [2] relates to ACHN.
The test system of experiment [3] is CCRF-CEM.
Experiment [4] deals with COLO 205.
Experiment [5] has as its system HCC 2998.
Experiment [6] relates to HCT-116.
Experiment [7] relates to HOP-92.
Experiment [8] has as its system HT-29.
For experiment [9], the system named is M14.
For experiment [10], the system named is NCI-H226.
For experiment [11], the system named is NCI-H460.
In experiment [12] the test system is SK-MEL-28.
Experiment [13] concerns SN12C.
The subject of experiment [14] is SNB-19.
In experiment [15] the test system is SK-OV-3.
In experiment [16] the test system is SR.

With `COC(=O)C1CCc2nnc(-c3ccccc3)n21` (stereo not given), the GI50 in experiment [1], in [2], in [3], in experiment [4], in [5] and in experiment [6] was > 100 µM (inactive) throughout. Also, the GI50 in experiment [7], in experiment [8], in experiment [9], in experiment [10], in experiment [11] and in [12] was > 100 µM (inactive) each time. The GI50 in experiment [13] and in experiment [14] was > 100 µM (inactive) each time.
`CN1c2ccccc2N(C(=O)c2ccc(Cl)cc2)C(CC(=O)O)c2cccn21` (stereo not given): the GI50 in [1], in experiment [2], in experiment [3], in experiment [4], in experiment [5] and in experiment [7] was > 100 µM (inactive) throughout. Moreover, the GI50 in experiment [8], in [9], in experiment [10], in experiment [11], in [12] and in experiment [15] was > 100 µM (inactive) each time. The GI50 in [13] and in [14] was > 100 µM (inactive) each time.
For `Cn1cc(NC(=O)c2cc(NC(=O)CCCCCCCCCCC(=O)Nc3cc(C(=O)Nc4cc(C(=O)NCCC(=N)N)n(C)c4)n(C)c3)cn2C)cc1C(=O)NCCC(=N)N`, the GI50 (as a rule, the concentration at which growth is held to half of that of the control) in experiment [1] was 23.6 µM (inactive); in [2], 29.9 µM (inactive); in [3], 50 µM (inactive); in [4], 9.73 µM (inactive); in experiment [5], 19 µM (inactive); in experiment [6] it was 27 µM (inactive). Further, the GI50 is 29.1 µM (inactive) in experiment [8]; 28.2 µM (inactive) in experiment [9]; > 100 µM (inactive) in [10]; 18.6 µM (inactive) in [11]; > 10 µM (inactive) in experiment [12]; > 100 µM (inactive) in [15]. The GI50 in experiment [13] was 37.1 µM (inactive); in experiment [14], 34.4 µM (inactive).
With `CC(=O)Nc1ccc(C(=O)N2N=C(C)/C(=C\c3c(O)ccc4ccccc34)C2=O)cc1`, the GI50 in [1] is > 100 µM (inactive); in [2] it was 30.6 µM (inactive); in experiment [3], 26.8 µM (inactive); in [4], > 100 µM (inactive); in experiment [5], > 100 µM (inactive); in experiment [6] it was 93.5 µM (inactive). For the same compound, the GI50 is > 100 µM (inactive) in experiment [8]; 85.1 µM (inactive) in experiment [9]; 39.5 µM (inactive) in [10]; > 100 µM (inactive) in [11]; 57.8 µM (inactive) in experiment [12]; 48.8 µM (inactive) in experiment [13]. Also, the values for the GI50 in [14] and in [16] were > 100 µM (inactive) and 53.3 µM (inactive), respectively.
As for `Cn1c(=O)nc2n(-c3ccc(F)c(F)c3)c3ccccc3nc-2c1=O`, the GI50 was 32.7 µM (inactive) in experiment [1]; 8.79 µM (inactive) in experiment [2]; 14.8 µM (inactive) in [3]; 4.08 µM (inactive) in experiment [4]; 4.89 µM (inactive) in experiment [5]; 13.2 µM (inactive) in experiment [6]. Moreover, the GI50 is 4.03 µM (inactive) in experiment [8]; 13.8 µM (inactive) in experiment [9]; 30.3 µM (inactive) in experiment [10]; 7.11 µM (inactive) in [11]; > 100 µM (inactive) in experiment [15]; 17.6 µM (inactive) in [13]. For the same compound, in experiment [14], the GI50 was 15.7 µM (inactive).
With `CC1=NN(C(=O)Cc2ccccc2)C(=O)/C1=C\c1ccccc1O`, the GI50 in experiment [1], in experiment [2], in experiment [3], in [4], in experiment [5] and in experiment [6] was > 100 µM (inactive) throughout. Further, the GI50 in experiment [7], in [8], in experiment [9], in experiment [10], in experiment [11] and in [12] was > 100 µM (inactive) each time. For the same compound, the GI50 in experiment [15], in experiment [13] and in [14] was > 100 µM (inactive) in each case.
On to `CCOc1ccccc1N1C(=O)C(=O)C(c2nc3ccccc3s2)C(=O)C1=O`, for which the GI50 in [1] was 5.36 µM (inactive); in experiment [2], 5.86 µM (inactive); in experiment [4] it was > 100 µM (inactive); in experiment [5], > 100 µM (inactive); in experiment [6] it was 35.8 µM (inactive); in experiment [7], 36.2 µM (inactive). Further, the GI50 in experiment [8] is 39.8 µM (inactive); in [9], > 100 µM (inactive); in experiment [10], 69.5 µM (inactive); in [11], 26.4 µM (inactive); in experiment [12] it was > 100 µM (inactive); in [15] it was 30.9 µM (inactive). Besides, the results for the GI50 in experiment [13] and in experiment [14] were 79.4 µM (inactive) and 56.5 µM (inactive), respectively.
In the case of `Cc1cc(C)n(-c2c(O)ccc(O)c2-n2nc(C)cc2C)n1`, the GI50 in experiment [1], in [2], in [3], in [4], in [5] and in experiment [7] was > 100 µM (inactive) throughout. Also, the GI50 in [8], in experiment [9], in experiment [11], in experiment [12], in experiment [15] and in experiment [13] was > 100 µM (inactive) in each case. Further, the GI50 in experiment [14] is > 100 µM (inactive).
As to `CN1CCCc2nc3ccccc3n2C1`, the GI50 in experiment [1] was > 100 µM (inactive); in experiment [2], > 100 µM (inactive); in experiment [3], 88.3 µM (inactive); in [4], > 100 µM (inactive); in experiment [6] it was > 100 µM (inactive); in [7] it was > 100 µM (inactive). Besides, the GI50 in experiment [8], in [9], in [10], in experiment [11], in experiment [12] and in experiment [15] was > 100 µM (inactive) throughout. The GI50 in [13] and in [14] was > 100 µM (inactive) in each case.
In the case of `Cc1cccc(C)c1NC(=O)C(=O)C(C#N)c1ccccc1` (stereo not given), the GI50 in experiment [1], in [2], in [3], in experiment [4], in [5] and in experiment [6] was > 100 µM (inactive) throughout. The GI50 in experiment [7], in [8], in experiment [9], in [10], in [11] and in [12] was > 100 µM (inactive) in each case. In addition, the GI50 in experiment [15], in experiment [13] and in [14] was > 100 µM (inactive) in each case.
For the compound `Cc1cccc(NC(=O)c2cc3cc(/N=N/c4ccccc4Cl)ccc3oc2=O)c1`, the GI50 in experiment [1] was 26.9 µM (inactive); in experiment [2], 40 µM (inactive); in experiment [3], 14 µM (inactive); in experiment [4] it was 57.7 µM (inactive); in experiment [5] it was 26.1 µM (inactive); in experiment [6], 23.7 µM (inactive). Also, the GI50 was 33.3 µM (inactive) in experiment [7]; 38.2 µM (inactive) in experiment [8]; 26.8 µM (inactive) in experiment [9]; 13 µM (inactive) in experiment [10]; 27 µM (inactive) in experiment [11]; 35.4 µM (inactive) in experiment [12]. Further, the GI50 in experiment [15] is 88.7 µM (inactive); in experiment [13] it was 30.2 µM (inactive); in experiment [14] it was 49 µM (inactive).
Turning to `O=c1nc(/C=C/c2ccccc2Cl)cc2n1CCN2CCO`, the GI50 in [1] is > 100 µM (inactive); in experiment [2], > 100 µM (inactive); in experiment [3] it was 50.4 µM (inactive); in experiment [4], > 100 µM (inactive); in experiment [6], > 100 µM (inactive); in experiment [7], > 100 µM (inactive). Also, the GI50 in [8] was > 100 µM (inactive); in [9], > 100 µM (inactive); in experiment [10] it was 97.9 µM (inactive); in experiment [11] it was > 100 µM (inactive); in experiment [12] it was > 100 µM (inactive); in experiment [15] it was 43.8 µM (inactive). The GI50 in experiment [13] was > 100 µM (inactive); in [14], < 0.01 µM (active); in experiment [16], 50.1 µM (inactive).
Turning to `CCOc1ccc(C(CN2CCOCC2)C(C)=O)cc1OC` (stereo not given), the GI50 in experiment [1] is 3.53 µM (inactive); in [2] it was 14.2 µM (inactive); in [3], 9.4 µM (inactive); in experiment [4], 6.62 µM (inactive); in experiment [5] it was 18.4 µM (inactive); in experiment [6] it was 20.4 µM (inactive). Besides, the GI50 was 18.9 µM (inactive) in experiment [7]; 19.6 µM (inactive) in experiment [8]; 17.5 µM (inactive) in experiment [9]; 17.7 µM (inactive) in experiment [10]; 18.4 µM (inactive) in experiment [11]; 19.1 µM (inactive) in [12]. The GI50 in experiment [13] was 17.4 µM (inactive); in experiment [14], 17.1 µM (inactive).
Take `Cc1cc(C)c(C2=NO[C@@H]3C(=O)N(c4ccc(Cc5ccc(N6C(=O)[C@H]7C(c8c(C)cc(C)cc8C)=NO[C@H]7C6=O)cc5)cc4)C(=O)[C@H]23)c(C)c1`: the GI50 in experiment [1], in [3], in experiment [4], in [5], in experiment [7] and in experiment [8] was > 100 µM (inactive) in each case. The GI50 was 64.4 µM (inactive) in experiment [9]; > 100 µM (inactive) in [10]; > 100 µM (inactive) in experiment [12]; > 100 µM (inactive) in [15]; > 100 µM (inactive) in experiment [13].
